One data set concerns the target T1, CYP2A6 (Homo sapiens, UniProt P11509).
T1 construct: purchased BD Biosciences Gentest, USA
T1 sequence (P11509 1-494): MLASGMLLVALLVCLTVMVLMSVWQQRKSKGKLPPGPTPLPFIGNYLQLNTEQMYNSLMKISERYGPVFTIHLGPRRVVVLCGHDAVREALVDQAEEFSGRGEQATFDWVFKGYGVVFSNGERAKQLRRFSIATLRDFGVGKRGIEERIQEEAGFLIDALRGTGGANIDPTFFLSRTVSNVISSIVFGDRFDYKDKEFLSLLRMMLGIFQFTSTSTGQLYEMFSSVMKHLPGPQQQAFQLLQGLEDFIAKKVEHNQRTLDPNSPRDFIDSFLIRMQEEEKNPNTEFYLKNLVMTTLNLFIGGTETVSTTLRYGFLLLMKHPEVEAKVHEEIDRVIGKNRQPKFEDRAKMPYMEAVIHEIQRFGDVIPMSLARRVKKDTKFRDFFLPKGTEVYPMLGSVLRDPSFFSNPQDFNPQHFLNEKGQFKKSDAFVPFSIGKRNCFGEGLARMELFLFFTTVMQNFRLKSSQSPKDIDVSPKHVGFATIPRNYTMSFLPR
The data set is described as follows: CYP2A6 inhibition, coumarin to Umbelliferone fluorescence assay in microsomes. Format: biochemical. The note with it: substrate coumarin 0.003 mM, 60 min at 37° C.; read-out: CYP2A6 inhibitor activity IC50. The method, then: Test compounds that inhibit the activity of CYP2A6 are identified by using the same principle as described in Example 28, first paragraph.
A test compound (details see list below) was incubated with CYP2A6 in the presence of a cytochrome P450 reductase. CYP2A6 and P450 reductase were employed in form of microsomes (BD Biosciences Gentest, USA). Microsomes were used which contained 2 pmoles CYP2A6 and an amount of NADPH-P450 reductase corresponding to cytochrome c reductase activity of 87 nmole/(min×mg protein). […] The concentration of the standard substrate coumarin was 0.003 mM.
The samples were analysed spectrofluorometrically according to the procedure described in Example 28.

The target of another data set is T2, Human CYP2B6 (Homo sapiens, UniProt P20813).
T2 construct: made in house; host or cells: Sf9 insect cells, recombinant baculoviruses (coexpression)
T2 sequence (P20813 1-491): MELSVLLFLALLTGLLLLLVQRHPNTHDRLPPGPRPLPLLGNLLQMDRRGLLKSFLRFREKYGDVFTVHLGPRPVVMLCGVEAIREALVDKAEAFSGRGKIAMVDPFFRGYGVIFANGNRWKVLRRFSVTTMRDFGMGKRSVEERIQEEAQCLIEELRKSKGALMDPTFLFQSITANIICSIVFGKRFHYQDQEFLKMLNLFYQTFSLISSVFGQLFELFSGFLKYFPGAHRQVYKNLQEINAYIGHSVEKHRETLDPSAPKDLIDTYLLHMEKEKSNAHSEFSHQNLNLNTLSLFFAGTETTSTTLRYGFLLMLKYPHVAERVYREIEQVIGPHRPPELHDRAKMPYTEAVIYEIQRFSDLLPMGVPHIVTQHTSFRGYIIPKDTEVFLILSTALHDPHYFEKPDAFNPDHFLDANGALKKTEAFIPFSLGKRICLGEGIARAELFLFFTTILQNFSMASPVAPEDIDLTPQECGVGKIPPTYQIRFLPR
The data set is described as follows: Inhibition of human CYP2B6, 7-ethoxy-4-trifluoromethyl-coumarin fluorescence assay in microsomes. It counts as biochemical. The conditions noted are these: substrate 7-ethoxy-4-trifluoromethyl-coumarin 6 μM, 40 min at 37° C.; read-out: CYP2B6 inhibitor activity IC50. As to the method:
Test compounds that inhibit the activity of CYP2B6 are identified by using the same principle as described in Example 28, first paragraph.
A test compound (details see Table 3) was incubated with CYP2B6 in the presence of a cytochrome P450 reductase. CYP2B6 and P450 reductase are produced using recombinant baculoviruses and co-expressing the two proteins in Sf9 insect cells as described in Example 28. Alternatively, microsomes containing CYP2B6 and the reductase are commercially available (BD Biosciences Gentest, USA). Microsomes were used which contained 1.5 pmoles CYP2B6. Potassium phosphate buffer final concentration was 100 mM, (1M stock, pH 7.4). […] The concentration of the standard substrate 7-ethoxy-4-trifluoromethyl-coumarin was 6 μM. […] The samples were incubated for 40 min at 37° C.

The target in another data set is T3, CYP2A13 (Homo sapiens, UniProt Q16696).
T3 sequence (Q16696 1-494): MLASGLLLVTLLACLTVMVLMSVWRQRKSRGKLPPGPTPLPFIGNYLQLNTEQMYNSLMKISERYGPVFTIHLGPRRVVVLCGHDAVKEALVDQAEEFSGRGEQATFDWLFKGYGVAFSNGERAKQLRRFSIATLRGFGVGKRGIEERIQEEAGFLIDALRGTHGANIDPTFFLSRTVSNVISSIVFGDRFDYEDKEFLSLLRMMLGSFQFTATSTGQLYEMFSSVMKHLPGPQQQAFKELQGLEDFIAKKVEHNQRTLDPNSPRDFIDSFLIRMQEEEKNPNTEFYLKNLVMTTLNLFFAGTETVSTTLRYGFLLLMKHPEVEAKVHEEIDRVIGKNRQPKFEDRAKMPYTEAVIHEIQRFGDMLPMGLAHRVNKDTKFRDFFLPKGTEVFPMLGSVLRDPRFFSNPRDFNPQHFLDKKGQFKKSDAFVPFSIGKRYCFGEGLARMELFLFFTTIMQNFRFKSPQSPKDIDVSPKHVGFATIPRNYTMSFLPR
The data set is described as follows: CYP2A13 inhibition, coumarin to 7-hydroxy-coumarin (Umbelliferone) fluorescence assay in microsomes.

Each structure is given as a SMILES string. Read-outs that look alike come from different tables or passages of the source.

Experimental for CYP2A13: Compounds that inhibit the activity of CYP2A13 are identified by using a standard reaction established for the enzyme. A known substrate is coumarin, and the product of the enzymatic reaction is 7-hydroxy-coumarin (Umbelliferone) which is strongly fluorescent. When a compound is added to the standard reaction and the formation of Umbelliferone is decreased, the compound is identified as an inhibitor, which can also be a competitive substrate of the enzyme. The compound is used at various concentrations and the concentration-dependent decrease in Umbelliferone formation allows to determine the concentration where the activity of the enzyme is reduced to the 50% level (IC50 value).
A test compound (details see Table 1) was incubated with CYP2A13 in the presence of a cytochrome P450 reductase. CYP2A13 and P450 reductase were employed in form of microsomes. […] Preferably, the two enzymes are coexpressed in the same insect cells and microsomes prepared which contain both enzymes. […] An MOI of 4 for recombinant CYP2A13 baculovirus combined with an MOI of 3.5 for recombinant P450 reductase baculovirus routinely produced microsomes with considerable activity.
Microsomes were used which contained 7 pmoles CYP2A13. […] The concentration of the standard substrate coumarin was 0.006 mM. […] The mixture was incubated for 10 min at 37° C. prior to the initiation of the enzymatic reaction by the addition of 0.005 ml of a solution of 50 mM NADPH in water. The final total volume was 0.2 ml, which is suitable for microtiter plate measurements. The samples were incubated for 60 min at 37° C. After 60 min, the enzymatic reaction was stopped by the addition of 0.02 ml cold 50% trichloroacetic acid (TCA) and incubated at 4° C. for 15 min. 0.005 ml of a solution of 50 mM NADPH in water was added to the control reaction which corresponds to the reaction without test compound and without NADPH, and as a consequence, no Umbelliferone was formed. Denatured proteins and other insoluble parts were separated by centrifugation (10 min, 560×g, room-temperature).
The samples were analysed spectrofluorometrically which allows to detect the formation of Umbelliferone as the enzymatic product of coumarin at an excitation wavelength of 340 nm and an emission wavelength of 480 nm.

For the compound `c1ncc2c(n1)CCCCCCCCCC2` [Compound ID 1, 5,6,7,8,9,10,11,12,13,14-decahydrocyclododeca[d]pyrimidine], the figures for the IC50 on CYP2A6, at Human CYP2B6 and against CYP2A13 were 9 µM, 2.7 µM and 0.3 µM, respectively.
As for `c1nc2c(o1)CCCCCCCCCC2` [Compound ID 15, 4,5,6,7,8,9,10,11,12,13-decahydrocyclododeca[d]oxazole], the IC50 is 53 µM at CYP2A6, 5.4 µM at Human CYP2B6 and 2 µM on CYP2A13.
As to `CCCCCCn1ccnc1` [Compound ID 16, 1-hexyl-1H-imidazole], the IC50 was 0.6 µM at Human CYP2B6 and 2.1 µM at CYP2A13 (read-out: CYP2A13 inhibitor activity IC50, substrate coumarin 0.006 mM, 60 min at 37° C.).
On to `CC/C=C\CCn1ccnc1` [Compound ID 23, (Z)-1-(hex-3-enyl)-1H-imidazole], for which the IC50 on CYP2A6 came to 7 µM; at Human CYP2B6, 2.2 µM; against CYP2A13, 3.4 µM.
`C=CCCCCn1ccnc1` [Compound ID 41, 1-(hex-5-enyl)-1H-imidazole]: the IC50 at Human CYP2B6 is 1.9 µM; against CYP2A13, 5.9 µM.
Turning to `CC(C)=CCC/C(C)=C\Cn1ccnc1` [Compound ID 44, 1-(3,7-dimethylocta-2,6-dienyl)-1H-imidazole], the results for the IC50 on CYP2A6, on Human CYP2B6 and against CYP2A13 were 6 µM, 0.1 µM and 6.4 µM, respectively.
On to `C=CCCCCCc1cnccn1` [Compound ID 57, 2-(hept-6-enyl)pyrazine], for which the figures for the IC50 at Human CYP2B6 and on CYP2A13 were 0.6 µM and 10.2 µM, respectively.

(Values after patent US20100113460A1, “Organic Compounds” (Givaudan SA, priority 2007, published 2010).)
